Experimental data as given in patent US9333265B2, “Organic-inorganic hybrid composite of polymerized nitroxide compound and inorganic particles” (UNIVERSITY OF TSUKUBA, priority 2012, dated 2016).

What was measured:
[1] = high-dosage administration; cited from earlier work
[2] = Blood uptake suppression after intraperitoneal administration (ESR signal in blood); type: in vivo
Text: Normally, low-molecular-weight compounds are taken up into the blood after intraperitoneal administration, and are at risk of dispersing throughout the body.

CC1(C)CCCC(C)(C)N1[O] [TEMPO]
side-effects [1]: reduced blood pressure and inhibition of the mitochondrial energy-transfer system | presence in blood after intraperitoneal administration (ESR signal) [2]: present in blood for an hour or more
